Measured values published in patent US8106034B2, “Angiotensin II receptor antagonists” (Merck Sharp & Dohme Corp., priority 2008, dated 2012).
pEC50: −log10 of the molar value.

Tested on: isolated rabbit thoracic aorta preparations
Assay: Vessel relaxation in isolated rabbit thoracic aorta preparations
Settings: Oryctolagus cuniculus; in vitro, rabbit aortic rings precontracted with noradrenaline, functional endothelium present
Description: The ability of the compounds to induce vasorelaxation was tested in vitro in isolated rabbit thoracic aorta preparations (Wanstall J. C. et al., Br. J. Pharmacol., 134:463-472, 2001). Male New Zealand rabbits were anaesthetized with thiopental-Na (50 mg/kg, iv), sacrificed by exsanguinations and then the thorax was opened and the aorta dissected. Aortic ring preparations (4 mm in length) were set up in physiological salt solution (PSS) at 37° C. in small organ chambers (5 ml). The composition of PSS was (mM): NaCl 130, NaHCO3 14.9, KH2PO4 1.2, MgSO4 1.2, HEPES 10, CaCl2, ascorbic acid […] and glucose 1.1 (95% O2/5% CO2; pH 7.4). Each ring was mounted under 2 g passive tension. Isometric tension was recorded with a Grass transducer (Grass FT03) attached to a BIOPAC MP150 System. Preparations were allowed to equilibrate for 1 h, and then contracted submaximally with noradrenaline (NA, 1 μM) and, when the contraction was stable, acetylcholine (ACh, 10 μM) was added. A relaxant response to ACh indicated the presence of a functional endothelium. […] When a stable precontraction was reached, a cumulative concentration-response curve to either of the vasorelaxant agents was obtained in the presence of a functional endothelium. Each arterial ring was exposed to only one combination of inhibitor and vasorelaxant. […]
Examples 3 and 5 were evaluated for vessel relaxation.

Q: How did the pEC50 turn out when `CCCCc1nc(Cl)c(C(=O)OCO/N=[N+](\[O-])N2CCCCC2CO)n1Cc1ccc(-c2ccccc2-c2nnn[nH]2)cc1` (centres unmarked) [Example 3, O^2-({[(2-butyl-4-chloro-1-{[2′-(1H-tetrazol-5-yl)biphenyl-4-yl]methyl}-1H-imidazol-5-yl)carbonyl]oxy}methyl)1-[2-(hydroxymethyl)piperidin-1-yl]diazen-1-ium-1,2-diolate] was run?
A: 5.28

Q: With `CCCCc1nc(Cl)c(C(=O)OCO/N=[N+](\[O-])N2CCC[C@H]2C(=O)O)n1Cc1ccc(-c2ccccc2-c2nnn[nH]2)cc1` [Example 5, O^2-({[(2-butyl-4-chloro-1-{[2′-(1H-tetrazol-5-yl)biphenyl-4-yl]methyl}-1H-imidazol-5-yl)carbonyl]oxy}methyl)1-[2S-(carboxylato)pyrrolidin-1-yl]diazen-1-ium-1,2-diolate] as the compound, how does the pEC50 read?
A: 4.73
